Laboratory results: patent US4943561A, “Gastrin releasing peptide antagonist” (Merck & Co., Inc., priority 1988, dated 1990)
Residues, ends and D or L forms follow the SMILES beside them. *: point of attachment. NH(2-Me-nonan-4R-yl) = CCCCC[C@H](CC(C)C)N*; NHCH(iBu)2 = CC(C)CC(CC(C)C)N*; X1 = CCCCC[C@@H](CC(C)C)N*; X2 = CCCC=C[C@H](CC(C)C)N*; Boc = CC(C)(C)OC(=O)*; Piv = CC(C)(C)C(=O)*; Ms = CS(=O)(=O)*

Assays:
[1] = target: T1, GRP receptor (Mus musculus, UniProt P21729); test: Procedure A: Binding Inhibition Studies (competition with [3H-Phe15]GRP15-27); parameters: species or system murine; settings: Swiss 3T3 cells; 3 nM [3H-Phe15]GRP15-27; 60 minutes at 15° C.
T1 construct: endogenous in cells; host or cells: Swiss 3T3 fibroblasts (intact monolayers)
T1 sequence (P21729 whole entry): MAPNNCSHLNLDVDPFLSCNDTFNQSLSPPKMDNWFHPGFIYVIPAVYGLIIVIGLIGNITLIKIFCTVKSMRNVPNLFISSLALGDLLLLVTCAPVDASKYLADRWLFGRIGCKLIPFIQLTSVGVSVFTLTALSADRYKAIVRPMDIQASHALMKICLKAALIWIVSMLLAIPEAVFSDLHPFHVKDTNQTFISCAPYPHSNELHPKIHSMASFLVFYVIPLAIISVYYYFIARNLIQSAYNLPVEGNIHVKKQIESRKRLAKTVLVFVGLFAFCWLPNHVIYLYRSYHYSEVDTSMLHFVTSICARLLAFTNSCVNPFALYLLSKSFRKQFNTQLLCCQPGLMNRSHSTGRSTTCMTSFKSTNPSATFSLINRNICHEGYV
Method: (§1) The activity of the peptide derivatives of the present invention as GRP antagonists was determined in competitive binding assays with a radio-active GRP derivative. Swiss 3T3 fibroblasts were used in these tests as the source of GRP receptor. Because these cells respond to GRP binding with a rapid increase in DNA synthesis, compounds that bind to the GRP receptor can also be tested for their ability to stimulate DNA synthesis. New DNA synthesis is one of the early steps in cell division and is widely accepted as a measure of mitogenicity or cell growth. […] Compounds which block DNA synthesis are mitogenic antagonists.
Swiss 3T3 cells, obtained from Dr. K. Brown (Institute of Animal Physiology, Cambridge, U.K.), were grown to confluency in Costar 12 -well plates containing DMEM (Gibco) supplemented with 10% fetal bovine serum, 2 mM glutamine and 1% penicillin-streptomycin. The cells were washed twice with binding buffer [1:1 DMEM:Waymouths MB752/1 medium, plus 1 mg/ml BSA (Fraction V, Calbiochem)]. The antagonist was dissolved in 10 mM HCl, and diluted to the appropriate concentration in binding buffer. The antagonist was then added to the cells, followed by [^3 H Phe^15 ]GRP15-27 at a final concentration of 3 nM. After 60 minutes incubation at 15° C., the supernatant liquid was removed and the cell monolayer rinsed four times with washing buffer (150 mM NaCl, 20 mM Na2 HPO4, 5mM KCl, 1.8 mM KH2 PO4, 1 mg/ml BSA) The cells were then lysed with 1 ml/well of lysis buffer (1% Triton X-100, 0.1% BSA), and the solution was aspirated into scintillation vials for counting. Each data point was collected in triplicate.

[2] = tested on: Swiss 3T3 cells; test: Procedure C: Mitogenesis Inhibition (GRP-stimulated 3H-thymidine uptake); format: cell-based, murine; settings: GRP plus antagonist, 48 hours
Method: as §1, with “antagonists. […] Swiss 3T3 cells were grown in monolayer culture in 24 -well plates (Costar) in serum free DMEM for 48 hours, at which time the GRP or a GRP homologue. The antagonist and 23 nM ^3 H-thymidine were added. After an additional 48 hours, the cell monolayer was washed twice with PBS, and the cells were then removed with 1 ml 10x trypsin containing 5 mM EDTA. The cells were harvested with a Skatron filter apparatus, and the filters counted in a scintillation counter.” for “antagonists.”

SMILES	IC50 [1]	IC50 [2]
CC(=O)N[C@@H](Cc1c[nH]cn1)C(=O)N[C@@H](Cc1c[nH]c2ccccc12)C(=O)N[C@@H](C)C(=O)N[C@H](C(=O)NCC(=O)N[C@@H](Cc1c[nH]cn1)C(=O)NC(CC(C)C)CC(C)C)C(C)C [Example 6] (Ac-HWAVGH-{NHCH(iBu)2})	2 nM	
CCCCC[C@H](CC(C)C)NC(=O)[C@H](Cc1c[nH]cn1)NC(=O)CNC(=O)[C@@H](NC(=O)[C@H](C)NC(=O)[C@H](Cc1c[nH]c2ccccc12)NC(=O)[C@H](Cc1c[nH]cn1)NS(C)(=O)=O)C(C)C [3(R)] (Ms-HWAVGH-{NH(2-Me-nonan-4R-yl)})	15 nM	
CCCC=C[C@H](CC(C)C)NC(=O)[C@H](Cc1c[nH]cn1)NC(=O)CNC(=O)[C@@H](NC(=O)[C@H](C)NC(=O)[C@H](Cc1c[nH]c2ccccc12)NC(=O)[C@H](Cc1c[nH]cn1)NC(C)=O)C(C)C [2(S)] (Ac-HWAVGH-X2)	11 nM	
CCCCC[C@H](CC(C)C)NC(=O)[C@H](Cc1c[nH]cn1)NC(=O)CNC(=O)[C@@H](NC(=O)[C@H](C)NC(=O)[C@H](Cc1c[nH]c2ccccc12)NC(=O)[C@H](Cc1c[nH]cn1)NC(=O)C(C)(C)C)C(C)C [4(R)] (Piv-HWAVGH-{NH(2-Me-nonan-4R-yl)})	3 nM	2 nM

Further lines, with some results ahead:

IC50 [1]	SMILES	IC50 [2]
2 nM	CCCCC[C@H](CC(C)C)NC(=O)[C@H](Cc1c[nH]cn1)NC(=O)CNC(=O)[C@@H](NC(=O)[C@H](C)NC(=O)[C@H](Cc1c[nH]c2ccccc12)NC(=O)[C@H](Cc1c[nH]cn1)NC(=O)OC(C)(C)C)C(C)C [5(R)] (Boc-HWAVGH-{NH(2-Me-nonan-4R-yl)})	
17 nM	CCCCC[C@@H](CC(C)C)NC(=O)[C@H](Cc1c[nH]cn1)NC(=O)CNC(=O)[C@@H](NC(=O)[C@H](C)NC(=O)[C@H](Cc1c[nH]c2ccccc12)NC(=O)[C@H](Cc1c[nH]cn1)NC(C)=O)C(C)C [1(S)] (Ac-HWAVGH-X1)	
2 nM	CCCCC[C@H](CC(C)C)NC(=O)[C@H](Cc1c[nH]cn1)NC(=O)CNC(=O)[C@@H](NC(=O)[C@H](C)NC(=O)[C@H](Cc1c[nH]c2ccccc12)NC(=O)[C@H](Cc1c[nH]cn1)NC(C)=O)C(C)C [1(R)] (Ac-HWAVGH-{NH(2-Me-nonan-4R-yl)})	
